Tests used:
[1] = system: nicotinic receptors in the brain; assay type: in vivo, mice
Method: Accumulation of ^3H-epibatidine occurs preferentially in brain regions containing nicotinic receptors. […] The specific binding in thalamus reaches a maximum 30 min after an i.v. injection of ^3H-epibatidine and this maximum is maintained for another 30 min.
All test substances were administered as solutions or suspensions prepared in vehicle (e.g. saline, water, 5% glucose, 0.5% CMC, 0.5% HPMC or 10% HPβCD) and tested in serial 1:3 dilutions. Doses were adjusted for salt.
Groups of three female NMRI mice (25 g) were administered vehicle or test substance p.o. at a volume of 0.75 ml. Mice were injected i.v. via the tail vein with 1 μCi of ^3H-epibatidine in 0.2 ml saline 45 min before decapitation. At the time of decapitation, the thalamus and a piece of cerebellum were rapidly dissected on ice. Tissues were weighed and dissolved for 36 h with 1 ml 2% sodium-laurylsulfate. The solubilized tissue was then added 2 ml of scintillation cocktail, and the amount of radioactivity in the tissue was counted by conventional liquid scintillation counting. Groups of vehicle-treated mice served as controls. Non-specific binding was defined as the amount of binding in cerebellum in vehicle treated mice.
Specific binding was determined as the amount of binding (dpm/5 mg tissue) in thalamus minus the amount of binding in cerebellum (dpm/5 mg tissue) in vehicle mice. […]

[2] = system: primary dopaminergic neuronal culture; experiment: Primary dopaminergic neuronal culture injured by MPP+, number of TH positive neurons; assay type: cell-based, rat; conditions: MPP+ 4 μM, 48H; compound 1 nM to 1 μM added 1H before intoxication
Description: Pregnant female Wistar rats of 15 days gestation was euthanized by cervical dislocation and the foetuses was removed from the uterus. Hereafter, the embryonic midbrains was removed and placed in ice-cold medium of Leibovitz containing 2% of Penicillin-Streptomycin and 1% of bovine serum albumin (BSA). Only the ventral portions of the mesencephalic flexure were used for the cell preparations as this is the region of the developing brain rich in dopaminergic neurons. The midbrains were dissociated by trypsinisation for 20 min at 37° C. (Trypsin EDTA 1X). The reaction was stopped by the addition of DULBECCO′S MODIFIED Eagle's medium (DMEM) containing DNAse I grade II (0.1 mg/ml) and 10% foetal calf serum (FCS). Cells were then mechanically dissociated by 3 passages through a 10 ml pipette. Cells was then centrifuged at 180×g for 10 min at 4° C. on a layer of BSA (3.5%) in L15 medium. The supernatant was discarded, and the cells of pellet were re-suspended in a defined culture medium consisting of Neurobasal supplemented with B27 (2%), L-glutamine (2 mM) and 2% of PS solution and 10 ng/ml BDNF and 1 ng/ml of Glial cell-derived neurotrophic factor (GDNF). Viable cells were counted in a Neunauer cytometer using the tryphan blue exclusion test. […]
Half of the medium was changed every 2 days with fresh medium. […] Following an additional 48H of incubation, the number of TH positive neurons were counted. […]

[3] = molecular target: T1, human α4β2 nicotinic receptors (Homo sapiens, UniProt P17787+P43681); experiment: FLIPR fluorescence-based calcium assay, α4β2; assay type: cell-based; conditions: FLIPR calcium response relative to nicotine
T1 construct: expressed in transfected cells
Method: The level of agonist activity of 9-methyl-3-pyridin-3-yl-3,9-diaza-bicyclo[3.3.1]nonane was tested in functional fluorescence-based calcium assays using TE671 cells and HEK293 cells stably expressing human α6/α3β2β3^V273S, α3β4 and α4β2 nicotinic receptors.
Cells were plated on poly-D-lysine coated 384-well microtiter plates and were allowed to proliferate for 24 h. Dye loading was performed by incubating cells with 2 μM fluo-4/AM for 1.5 h at room temperature. Dye not taken up by cells was removed by aspiration followed by three washing cycles with 25 μl of NMDG Ringer buffer (in mM: 140 NMDG, 5 KCl, 1 MgCl2, 10 CaCl2, 10 HEPES, pH 7.4) after which the cells were kept in 25 μl of the same buffer. The microtiter plates were placed in a Fluoremetric Imaging Plate Reader (FLIPR) and subjected to test compound at various concentrations. Background subtracted compound-mediated calcium responses were normalized to 100 μM nicotine control responses and pEC50 as well as relative maximal efficacy values were determined.

α4β2 cHS/cLS receptors = experiment: Oocyte two-electrode voltage-clamp electrophysiology, α4β2; assay type: cell-based; conditions: Xenopus laevis oocytes
Method: Two-electrode voltage-clamp electrophysiology recordings were done in Xenopus laevis oocytes injected with approximately 25 ng cRNA. After injection, oocytes were incubated at 17° C. for 2-3 days. During measurements, an oocyte was placed in a custom designed recording chamber where compound solutions are added directly to the oocyte via a glass capillary. Compound solutions were prepared on the day of measurement and applied to oocytes with a flowrate of 2.0 ml/min. All datasets were baseline subtracted and responses to individual applications were read as peak current amplitudes. Concentration response relationships describing compound effect at a fixed acetylcholine concentration were fitted to a monophasic Hill-equation. Potency (EC50) and efficacy values (fitted maximal current relative to maximal current of acetylcholine).

T1 sequence (P43681 29-627 limits assumed): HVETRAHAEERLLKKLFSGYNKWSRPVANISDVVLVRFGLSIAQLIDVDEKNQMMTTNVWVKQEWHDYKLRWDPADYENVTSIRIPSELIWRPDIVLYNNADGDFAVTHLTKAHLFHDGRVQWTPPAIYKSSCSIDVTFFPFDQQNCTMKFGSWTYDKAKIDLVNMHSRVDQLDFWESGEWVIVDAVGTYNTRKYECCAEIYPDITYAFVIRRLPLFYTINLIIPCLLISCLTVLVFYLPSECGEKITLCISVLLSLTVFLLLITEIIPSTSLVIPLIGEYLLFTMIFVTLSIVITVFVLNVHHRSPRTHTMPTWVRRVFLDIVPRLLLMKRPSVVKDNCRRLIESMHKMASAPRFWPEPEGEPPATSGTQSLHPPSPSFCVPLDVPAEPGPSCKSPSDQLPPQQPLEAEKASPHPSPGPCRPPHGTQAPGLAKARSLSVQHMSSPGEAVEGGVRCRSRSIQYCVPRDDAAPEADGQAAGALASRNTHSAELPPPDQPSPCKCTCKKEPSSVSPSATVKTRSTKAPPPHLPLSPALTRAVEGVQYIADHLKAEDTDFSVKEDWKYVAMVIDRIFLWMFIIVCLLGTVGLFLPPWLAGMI
T1 sequence (P17787 26-502): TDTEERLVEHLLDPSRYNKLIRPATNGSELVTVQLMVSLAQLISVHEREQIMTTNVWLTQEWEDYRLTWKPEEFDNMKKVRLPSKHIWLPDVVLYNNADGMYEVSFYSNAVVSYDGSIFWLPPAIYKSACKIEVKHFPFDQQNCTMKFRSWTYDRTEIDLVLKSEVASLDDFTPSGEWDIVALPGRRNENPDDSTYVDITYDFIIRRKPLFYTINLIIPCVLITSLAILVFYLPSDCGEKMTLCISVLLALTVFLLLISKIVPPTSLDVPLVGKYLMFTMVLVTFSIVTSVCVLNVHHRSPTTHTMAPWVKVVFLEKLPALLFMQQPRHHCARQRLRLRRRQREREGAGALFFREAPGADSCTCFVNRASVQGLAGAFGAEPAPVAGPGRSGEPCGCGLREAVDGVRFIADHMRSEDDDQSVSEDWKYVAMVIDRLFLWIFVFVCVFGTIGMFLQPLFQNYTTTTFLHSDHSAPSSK

SMILES: CN1C2CCCC1CN(c1cccnc1)C2 [9-methyl-3-pyridin-3-yl-3,9-diaza-bicyclo[3.3.1]nonane]
- ED50, inhibition of specific binding of 3H-epibatidine ([1]; mice pre-dosed for 45 min, p.o.): 1.3 mg/kg
- maintained brain exposure (duration) ([1]; mice, 2 mg/kg p.o., time course up to 6 hours): at least 6 hours
- neuroprotective effect, number of TH positive neurons [2]: concentration-dependent neuroprotective effect
- efficacy [3]: practically no efficacy
- efficacy (α4β2 cHS/cLS receptors): practically no efficacy

From patent publication US20180311238A1, “Selective Agonist Of a6 Containing nAChRs” (Saniona A/S, priority 2017, published 2018)
